Data taken from ChEMBL document CHEMBL5154780, “Target Fishing Reveals a Novel Mechanism of 1,2,4-Oxadiazole Derivatives Targeting Rpn6, a Subunit of 26S Proteasome” (J Med Chem, 2022).
Calls of active or inactive are those of the source. No cut-off for these calls is given here. Where a SMILES comes first, the peptide text is derived from it. The star is where a group is joined. Cbz = O=C(OCc1ccccc1)*

Legend:
[1] = target: T1, Nuclear factor erythroid 2-related factor 2 (Rattus norvegicus) (UniProt O54968); experiment: Inhibition of Nrf2 degradation in rat PC-12 cells assessed as accumulation of ubiquitinated Nrf2 at 40 uM incubated for 6 hrs in presence of proteasome inhibitor MG132 by Western blot analysis; assay type: cell-based
T1 sequence (whole entry): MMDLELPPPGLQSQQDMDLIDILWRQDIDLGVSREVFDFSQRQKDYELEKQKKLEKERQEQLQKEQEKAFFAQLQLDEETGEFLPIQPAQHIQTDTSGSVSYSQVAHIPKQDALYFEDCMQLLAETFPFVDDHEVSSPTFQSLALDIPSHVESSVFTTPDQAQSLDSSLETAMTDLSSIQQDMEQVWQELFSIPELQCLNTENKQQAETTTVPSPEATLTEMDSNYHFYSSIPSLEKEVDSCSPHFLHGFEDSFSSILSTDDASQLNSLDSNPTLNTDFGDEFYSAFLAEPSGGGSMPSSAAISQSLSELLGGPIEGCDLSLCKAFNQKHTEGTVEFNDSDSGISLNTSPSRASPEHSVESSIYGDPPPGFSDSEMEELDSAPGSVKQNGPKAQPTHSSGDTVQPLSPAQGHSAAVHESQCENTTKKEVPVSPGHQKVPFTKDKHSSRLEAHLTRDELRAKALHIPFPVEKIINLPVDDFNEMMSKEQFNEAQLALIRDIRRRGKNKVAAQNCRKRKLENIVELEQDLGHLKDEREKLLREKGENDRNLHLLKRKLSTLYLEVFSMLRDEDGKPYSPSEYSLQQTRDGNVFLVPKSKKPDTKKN

HepG2-ARE-C8 [2] = experiment: Activation of Nrf2-ARE pathway in human HepG2-ARE-C8 cells assessed as fold upregulation of ARE-inducing luciferase activity at 80 uM measured after 24 hrs by luciferase reporter gene assay; assay type: cell-based; settings: filed as activator
THP-1 [3] = experiment: Antiinflammatory activity in PMA-differentiated and LPS-stimulated human THP-1 cell model assessed as inhibition of NLRP3 inflammasome-driven IL-1beta production at 15 uM incubated for 24 hrs followed by LPS stimulation for 3 hrs and ATP addition for 1 hr by ELISA; assay type: functional; design: scale not given: the % may be the effect or the level left
[4] = target: T1, Nuclear factor erythroid 2-related factor 2 (Rattus norvegicus); experiment: Inhibition of Nrf2 degradation in rat PC-12 cells assessed as increase in ubiquitinated Nrf2 at 40 uM incubated for 6 hrs in presence of proteasome inhibitor MG132 by co-immunoprecipitation based Western blot analysis; assay type: cell-based
THP-1 [5] = experiment: Antiinflammatory activity in PMA-differentiated and LPS-stimulated human THP-1 cell model assessed as inhibition of NLRP3 inflammasome-driven IL-1beta production at 30 uM incubated for 24 hrs followed by LPS stimulation for 3 hrs and ATP addition for 1 hr by ELISA; assay type: functional; design: scale not given: the % may be the effect or the level left
HepG2-ARE-C8 [6] = experiment: Activation of Nrf2-ARE pathway in human HepG2-ARE-C8 cells assessed as fold upregulation of ARE-inducing luciferase activity at 160 uM measured after 24 hrs by luciferase reporter gene assay; assay type: cell-based; settings: filed as activator
[7] = Cytotoxicity against human THP-1 cells assessed as reduction in cell viability measured after 24 hrs by MTT assay; assay type: toxicity, cell-based
[8] = target: 26S proteasome non-ATPase regulatory subunit 11 (Homo sapiens, UniProt O00231); experiment: Binding affinity to biotinylated recombinant Rpn6 (unknown origin) assessed as dissociation constant by biolayer interferometry analysis
26S proteasome non-ATPase regulatory subunit 11, sequence (O00231 whole entry): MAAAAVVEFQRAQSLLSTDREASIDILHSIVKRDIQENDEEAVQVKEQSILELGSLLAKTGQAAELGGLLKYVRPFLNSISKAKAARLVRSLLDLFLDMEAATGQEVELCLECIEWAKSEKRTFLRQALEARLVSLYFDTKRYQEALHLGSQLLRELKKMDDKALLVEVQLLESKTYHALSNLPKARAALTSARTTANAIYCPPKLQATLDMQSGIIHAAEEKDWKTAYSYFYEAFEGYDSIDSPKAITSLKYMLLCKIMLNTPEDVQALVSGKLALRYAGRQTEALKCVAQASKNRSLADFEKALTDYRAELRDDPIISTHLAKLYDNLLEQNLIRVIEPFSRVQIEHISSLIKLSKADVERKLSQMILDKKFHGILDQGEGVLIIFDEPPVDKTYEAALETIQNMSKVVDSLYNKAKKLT

[9] = target: T1, Nuclear factor erythroid 2-related factor 2 (Rattus norvegicus); experiment: Inhibition of Nrf2 degradation in rat PC-12 cells assessed as increase in ubiquitinated Nrf2 at 40 uM incubated for 6 hrs by co-immunoprecipitation based Western blot analysis; assay type: cell-based
HepG2-ARE-C8 [10] = experiment: Activation of Nrf2-ARE pathway in human HepG2-ARE-C8 cells assessed as fold upregulation of ARE-inducing luciferase activity at 20 uM measured after 24 hrs by luciferase reporter gene assay; assay type: cell-based; settings: filed as activator
HepG2-ARE-C8 [11] = experiment: Activation of Nrf2-ARE pathway in human HepG2-ARE-C8 cells assessed as fold upregulation of ARE-inducing luciferase activity at 40 uM measured after 24 hrs by luciferase reporter gene assay; assay type: cell-based; settings: filed as activator
THP-1 [12] = experiment: Antiinflammatory activity in PMA-differentiated and LPS-stimulated human THP-1 cell model assessed as inhibition of NLRP3 inflammasome-driven IL-1beta production at 45 uM incubated for 24 hrs followed by LPS stimulation for 3 hrs and ATP addition for 1 hr by ELISA; assay type: functional; design: scale not given: the % may be the effect or the level left
HepG2-ARE-C8 [13] = experiment: Activation of Nrf2-ARE pathway in human HepG2-ARE-C8 cells assessed as fold upregulation of ARE-inducing luciferase activity at 10 uM measured after 24 hrs by luciferase reporter gene assay; assay type: cell-based; settings: filed as activator
[14] = target: T1, Nuclear factor erythroid 2-related factor 2 (Rattus norvegicus); experiment: Inhibition of Nrf2 degradation in rat PC-12 cells assessed as accumulation of ubiquitinated Nrf2 at 40 uM incubated for 6 hrs by Western blot analysis; assay type: cell-based
[15] = target: 26S proteasome non-ATPase regulatory subunit 11 (Rattus norvegicus) (UniProt F1LMZ8); experiment: Binding affinity to biotinylated recombinant Rpn6 in rat PC-12 cells at 100 to 200 uM incubation for overnight by pull-down assay based SDS-PAGE analysis; assay type: cell-based; settings: filed as activator, dose 100-200 µM, DDE = dose-dependent effect
26S proteasome non-ATPase regulatory subunit 11 (Rattus norvegicus), sequence (F1LMZ8 whole entry): as the sequence (O00231 whole entry) above

[16] = target: T1, Nuclear factor erythroid 2-related factor 2 (Rattus norvegicus); experiment: Activation of Nrf2 in rat PC-12 cells assessed as reduction of Nrf2 in cytoplasm at 20 uM measured after 4 hrs by western blot analysis; assay type: cell-based; settings: filed as activator
[17] = target: T1, Nuclear factor erythroid 2-related factor 2 (Rattus norvegicus); experiment: Activation of Nrf2 in rat PC-12 cells assessed as upregulation of NQO1 protein expression measured after 24 hrs by Western blot analysis; assay type: cell-based; settings: filed as activator, dose 10-40 µM, DDE = dose-dependent effect
PC-12 [18] = experiment: Cytoprotective activity against H2O2-induced oxidative damage in rat PC-12 assessed as increase in cell viability preincubated for 24 hrs followed by H2O2 stimulation for 3 hrs by MTT assay; assay type: functional, cell-based; settings: dose 5-80 µM, DDE = dose-dependent effect
[19] = target: T1, Nuclear factor erythroid 2-related factor 2 (Rattus norvegicus); experiment: Activation of Nrf2 in rat PC-12 cells assessed as upregulation of HO-1 protein expression measured after 24 hrs by Western blot analysis; assay type: cell-based; settings: filed as activator, dose 10-40 µM, DDE = dose-dependent effect
[20] = target: T1, Nuclear factor erythroid 2-related factor 2 (Rattus norvegicus); experiment: Activation of Nrf2 in rat PC-12 cells assessed as upregulation of Nrf2 in nucleus at 20 uM measured after 4 hrs by western blot analysis; assay type: cell-based; settings: filed as activator
[21] = target: T1, Nuclear factor erythroid 2-related factor 2 (Rattus norvegicus); experiment: Activation of Nrf2 in rat PC-12 cells assessed as upregulation of Nrf2 protein expression measured after 24 hrs by Western blot analysis; assay type: cell-based; settings: filed as activator, dose 10-40 µM, DDE = dose-dependent effect
[22] = target: T1, Nuclear factor erythroid 2-related factor 2 (Rattus norvegicus); experiment: Inhibition of Nrf2 degradation in rat PC-12 cells assessed as accumulation of ubiquitinated Nrf2 at 10 uM incubated for 6 hrs by Western blot analysis; assay type: cell-based
[23] = target: 26S proteasome non-ATPase regulatory subunit 11 (Rattus norvegicus) (UniProt F1LMZ8); experiment: Binding affinity to recombinant Rpn6 in rat PC-12 cells at 60 uM measured after 12 hrs by DAPI staining based fluorescence microscope assay; assay type: cell-based; settings: filed as activator
PC-12 [24] = experiment: Induction of cell membrane permeability in rat PC-12 cells at 60 uM measured after 10 hrs by fluorescence microscopic analysis; assay type: cell-based

Row | SMILES | fold change (FC) (HepG2-ARE-C8 [2]) | Activity (THP-1 [3]) [%] | Activity (THP-1 [5]) [%] | fold change (FC) (HepG2-ARE-C8 [6]) | IC50 at 24 h [7] [µM] | fold change (FC) (HepG2-ARE-C8 [10]) | fold change (FC) (HepG2-ARE-C8 [11]) | Activity (THP-1 [12]) [%] | fold change (FC) (HepG2-ARE-C8 [13]) | other results
1 | Fc1ccc(-c2nc(-c3ccc4nc[nH]c4c3)no2)cc1 | 19.3 | 87.24 | 98.39 | 31.5 | > 100 | 4.19 | 7.5 | 102.6 | 4.53 | Activity [1]: Active; Activity [4]: Active; Kd [8]: 8.53 µM; Activity [9]: Active; Activity [14]: Active
2 | CCNC(=O)CCCCCNC(C)=O | 1.22 | -2.73 | 3.52 | 1.22 | > 100 | 1.17 | 1.41 | 2.89 | 1.17 | –
3 | Cc1ccc(-c2noc(-c3ccc(F)cc3NC(=O)CCCCCNC(=O)CCCC[C@@H]3SC[C@@H]4NC(=O)N[C@@H]43)n2)cn1 | 7.1 | 33.81 | 64.61 | 11.8 | > 100 | 5.59 | 6.69 | 97.72 | 4.96 | Activity [15]: Dde; Activity [16]: Active; Activity [17]: Dde; Kd [8]: 1.38 µM; Activity (PC-12 [18]): Dde; Activity [19]: Dde; Activity [20]: Active; Activity [21]: Dde
4 | O=C(O)CCCC[C@@H]1SC[C@@H]2NC(=O)N[C@@H]21 | 1.45 | – | – | 1.55 | – | 1.12 | 1.18 | – | 1.55 | –
5 | Cc1ccc(-c2noc(-c3ccc(F)cc3)n2)cn1 | 31.7 | 49.86 | 53.91 | 29.6 | > 100 | 2.75 | 7.14 | 85.46 | 2.08 | Activity [16]: Active; Activity [17]: Dde; Activity [19]: Dde; Activity [20]: Active; Activity [21]: Dde
6 | CC(C)(C)c1cc(O)ccc1O [E319] | 12 | 50.88 | 58.58 | 15.9 | > 100 | 3.13 | 2.98 | 98.29 | 2.94 | –
7 | CC(C)C[C@@H](C=O)NC(=O)[C@H](CC(C)C)NC(=O)[C@H](CC(C)C)NC(=O)OCc1ccccc1 (Cbz-Leu-Leu-Leu-aldehyde) | – | – | – | – | – | – | – | – | – | Activity [22]: Active
8 | Cc1ccc(-c2noc(-c3ccc(F)cc3NC(=O)CCCCCNC(=S)Nc3ccc4c(c3)C(=O)OC43c4ccc(O)cc4Oc4cc(O)ccc43)n2)cn1 | 2.71 | 67.9 | 77.63 | 6.42 | > 100 | 2.28 | 2.3 | 89.34 | 2.62 | Activity [23]: Active; Activity (PC-12 [24]): Active
